Results: US20090082425A1 (priority 2007, published 2009)

System: DU-145
Assay type: cell-based, human

CC(=O)O[C@H]1C(=O)[C@@]2(C)[C@H]([C@H](OC(=O)c3ccccc3)[C@]3(O)C[C@H](OC(=O)[C@H](O)[C@@H](NC(=O)c4ccccc4)c4ccccc4)C(C)=C1C3(C)C)[C@]1(OC(C)=O)CO[C@@H]1C[C@@H]2O [Taxol]
Cell survival rate (%): 63.88%
